According to US10562912B2 (C&C Research Laboratories, priority 2013, dated 2020):

What was measured:
Format in all cases: cell-based
STAT3 = molecular target: T1, STAT3 (Homo sapiens, UniProt P40763); assay: STAT3 reporter gene assay (luciferase), LNCaP stable cell line (pSTAT3-TA-luc), IL-6 stimulation
T1 construct: plasmid pSTAT3-TA-luc), which contains a stably operating STAT3 promoter; endogenous in cells
In short: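 Cytotoxicity was run on a duplicate plate with CellTiter-Glo, while the other plate gave luciferase read-outs from lysed LNCaP pSTAT3-TA-luc reporter cells. Cells were treated with graded compound concentrations plus IL-6 (10 ng/mL final) for 24–48 h in 3% DCC-FBS medium. Unstimulated and stimulated wells served as negative and positive controls.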

LNCaP = assay: Cell growth inhibition assay, prostate cancer cell line LNCaP (medium with 10 ng/mL IL-6); conditions: Homo sapiens, medium supplemented with 10 ng/mL of IL-6, 10,000 cells/well
DU-145 = assay: Cell growth inhibition assay, prostate cancer cell line DU-145; conditions: Homo sapiens, DU-145 prostate cancer cell line
In short: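 Luminescent CellTiter-Glo readout of viable cells after 72–96 h compound exposure (37° C., 5% CO2). Seeding: 3,000 cells/well for DU-145 and HCT116, 5,000 cells/well for SW626. Controls were medium without cells and 0.1% DMSO vehicle.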

T1 sequence (P40763 whole entry): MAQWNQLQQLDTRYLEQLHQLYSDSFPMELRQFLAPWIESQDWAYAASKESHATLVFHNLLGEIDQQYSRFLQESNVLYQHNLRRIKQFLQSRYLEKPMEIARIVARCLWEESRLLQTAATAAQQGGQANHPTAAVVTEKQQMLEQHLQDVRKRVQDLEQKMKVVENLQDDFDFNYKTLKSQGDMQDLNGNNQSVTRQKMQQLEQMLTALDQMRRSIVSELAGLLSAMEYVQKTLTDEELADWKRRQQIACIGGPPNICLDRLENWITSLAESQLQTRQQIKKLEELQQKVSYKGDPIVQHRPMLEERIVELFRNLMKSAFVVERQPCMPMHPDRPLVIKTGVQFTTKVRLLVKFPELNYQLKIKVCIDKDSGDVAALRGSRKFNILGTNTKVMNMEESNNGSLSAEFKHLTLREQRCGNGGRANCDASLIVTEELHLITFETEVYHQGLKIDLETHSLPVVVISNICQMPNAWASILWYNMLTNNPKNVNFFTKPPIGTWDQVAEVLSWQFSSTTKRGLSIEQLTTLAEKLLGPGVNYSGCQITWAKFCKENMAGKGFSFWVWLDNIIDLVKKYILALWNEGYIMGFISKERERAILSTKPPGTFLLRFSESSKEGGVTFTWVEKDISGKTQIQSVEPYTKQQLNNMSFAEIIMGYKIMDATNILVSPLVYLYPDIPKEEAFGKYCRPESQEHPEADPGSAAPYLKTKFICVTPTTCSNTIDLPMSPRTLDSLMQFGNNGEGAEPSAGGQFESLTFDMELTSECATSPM

Compound | IC50 (STAT3) | IC50 (LNCaP) | IC50 (DU-145)
CC(C)(c1cc(Cl)cc(NC(=O)c2cc3cc(NS(C)(=O)=O)ccc3s2)c1)c1cccs1 [Example 170, N-(3-chloro-5-(2-(thiophen-2-yl)propan-2-yl)phenyl)-5-(methylsulfonamido)benzo[b]thiophene-2-carboxamide] | 0.068 µM | 0.059 µM | 0.005 µM
Cc1ccc(C(C)(C)c2cc(Cl)cc(NC(=O)c3cc4cc(NS(C)(=O)=O)ccc4s3)c2)s1 [Example 178, N-(3-chloro-5-(2-(5-methylthiophen-2-yl)propan-2-yl)phenyl)-5-(methylsulfonamido)benzo[b]thiophene-2-carboxamide] | 0.025 µM | 0.042 µM | 0.024 µM
CS(=O)(=O)Nc1cc2cc(C(=O)Nc3cc(Cl)cc(Oc4ccc(Cl)cc4)c3)sc2cc1Br [Example 453, 6-bromo-N-(3-chloro-5-(4-chlorophenoxy)phenyl)-5-(methylsulfonamido)benzo[b]thiophene-2-carboxamide] | 0.022 µM | 0.35 µM | 0.018 µM
CS(=O)(=O)Nc1ccc2sc(C(=O)Nc3cc(Cl)cc(Oc4ccc(C(F)(F)F)cc4)c3)cc2c1 [Example 465, N-(3-chloro-5-(4-(trifluoromethyl)phenoxy)phenyl)-5-(methylsulfonamido)benzo[b]thiophene-2-carboxamide] | 0.12 µM | 0.063 µM | 0.048 µM
CC(C)(c1ccsc1)c1cc(Cl)cc(NC(=O)c2cc3cc(NS(C)(=O)=O)ccc3s2)c1 [Example 171, N-(3-chloro-5-(2-(thiophen-3-yl)propan-2-yl)phenyl)-5-(methylsulfonamido)benzo[b]thiophene-2-carboxamide] | 0.074 µM | 0.071 µM | 0.038 µM
CS(=O)(=O)Nc1cc2cc(C(=O)Nc3cc(Cl)cc(Oc4cc(F)cc(Cl)c4)c3)sc2cc1Cl [Example 483, 6-chloro-N-(3-chloro-5-(3-chloro-5-fluorophenoxy)phenyl)-5-(methylsulfonamido)benzo[b]thiophene-2-carboxamide] | 0.014 µM | 0.02 µM | 0.01 µM
CS(=O)(=O)Nc1ccc2sc(C(=O)Nc3cc(Cl)cc(Oc4ccc(Cl)cc4Cl)c3)cc2c1 [Example 462, N-(3-chloro-5-(2,4-dichlorophenoxy)phenyl)-5-(methylsulfonamido)benzo[b]thiophene-2-carboxamide] | 0.13 µM | 0.33 µM | 0.13 µM
CS(=O)(=O)Nc1cc2cc(C(=O)Nc3cc(Cl)cc(Oc4ccc(Cl)s4)c3)sc2cc1Cl [Example 473, 6-chloro-N-(3-chloro-5-((5-chlorothiophen-2-yl)oxy)phenyl)-5-(methylsulfonamido)benzo[b]thiophene-2-carboxamide] | 0.1 µM | 0.015 µM | 0.015 µM
CC(C)Oc1cc(CN2CCN(c3noc(C(C)C)n3)CC2)cc(C(C)(C)c2cc(F)cc(NC(=O)c3cc4cc(NS(C)(=O)=O)ccc4s3)c2)c1 [Example 136, N-(3-fluoro-5-(2-(3-isopropoxy-5-((4-(5-isopropyl-1,2,4-oxadiazol-3-yl)piperazin-1-yl)methyl)phenyl)propan-2-yl)phenyl)-5-(methylsulfonamido)benzo[b]thiophene-2-carboxamide] | 0.059 µM | 0.38 µM | 0.051 µM
CC(C)Oc1cc(OC(F)(F)F)cc(C(C)(C)c2cc(Cl)cc(NC(=O)c3cc4cc(NS(=O)(=O)CC5CCCO5)ccc4s3)c2)c1 (stereo not drawn) [Example 197, N-(3-chloro-5-(2-(3-isopropoxy-5-(trifluoromethoxy)phenyl)propan-2-yl)phenyl)-5-(((tetrahydrofuran-2-yl)methyl)sulfonamido)benzo[b]thiophene-2-carboxamide] | 0.012 µM | 0.065 µM | 0.016 µM
CS(=O)(=O)Nc1ccc2sc(C(=O)Nc3cc(Cl)cc(Oc4ccc(C#N)cc4)c3)cc2c1 [Example 451, N-(3-chloro-5-(4-cyanophenoxy)phenyl)-5-(methylsulfonamido)benzo[b]thiophene-2-carboxamide] | 0.14 µM | 0.51 µM | 0.19 µM

More lines, in order of falling IC50 (STAT3), values ahead:

IC50 (STAT3) | IC50 (LNCaP) | IC50 (DU-145) | Compound
0.36 µM | 0.12 µM | 0.086 µM | CS(=O)(=O)Nc1ccc2sc(C(=O)Nc3cc(Cl)cc(Oc4cc(F)cc(Cl)c4)c3)cc2c1 [Example 469, N-(3-chloro-5-(3-chloro-5-fluorophenoxy)phenyl)-5-(methylsulfonamido)benzo[b]thiophene-2-carboxamide]
0.35 µM | 0.97 µM | 0.41 µM | CC(C)Oc1cc(CN2CCS(=O)(=O)CC2)cc(C(C)(C)c2cc(Cl)cc(NC(=O)c3cc4cc(NS(C)(=O)=O)ccc4s3)c2)c1 [Example 132, N-(3-chloro-5-(2-(3-((1,1-dioxidothiomorpholino)methyl)-5-isopropoxyphenyl)propan-2-yl)phenyl)-5-(methylsulfonamido)benzo[b]thiophene-2-carboxamide]
0.17 µM | 0.31 µM | 0.16 µM | CS(=O)(=O)Nc1ccc2sc(C(=O)Nc3cc(Cl)cc(Oc4cc(Cl)cc(Cl)c4)c3)cc2c1 [Example 464, N-(3-chloro-5-(3,5-dichlorophenoxy)phenyl)-5-(methylsulfonamido)benzo[b]thiophene-2-carboxamide]
0.1 µM | 0.099 µM | 0.06 µM | CS(=O)(=O)Nc1ccc2sc(C(=O)Nc3cc(Cl)cc(Oc4cccc(OC(F)(F)F)c4)c3)cc2c1 [Example 450, N-(3-chloro-5-(3-(trifluoromethoxy)phenoxy)phenyl)-5-(methylsulfonamido)benzo[b]thiophene-2-carboxamide]
0.085 µM | 0.26 µM | 0.1 µM | CC(C)Oc1cc(CN2CCN(S(=O)(=O)N(C)C)CC2)cc(C(C)(C)c2cc(Cl)cc(NC(=O)c3cc4cc(NS(C)(=O)=O)ccc4s3)c2)c1 [Example 131, N-(3-chloro-5-(2-(3-((4-(N,N-dimethylsulfamoyl)piperazin-1-yl)methyl)-5-isopropoxyphenyl)propan-2-yl)phenyl)-5-(methylsulfonamido)benzo[b]thiophene-2-carboxamide]
0.047 µM | 0.089 µM | 0.058 µM | COc1ccc(C(C)(C)c2cc(Cl)cc(NC(=O)c3cc4cc(NS(C)(=O)=O)ccc4s3)c2)s1 [Example 177, N-(3-chloro-5-(2-(5-methoxythiophen-2-yl)propan-2-yl)phenyl)-5-(methylsulfonamido)benzo[b]thiophene-2-carboxamide]
0.034 µM | 0.037 µM | 0.01 µM | COc1cc(OC(F)(F)F)cc(C(C)(C)c2cc(F)cc(NC(=O)c3cc4cc(NS(C)(=O)=O)ccc4s3)c2)c1 [Example 63, N-(3-fluoro-5-(2-(3-methoxy-5-(trifluoromethoxy)phenyl)propan-2-yl)phenyl)-5-(methylsulfonamido)benzo[b]thiophene-2-carboxamide]
0.011 µM | 0.011 µM | 0.008 µM | CN(c1ccc2sc(C(=O)Nc3cc(Cl)cc(C(C)(C)c4ccc(Cl)cc4)c3)cc2c1)S(C)(=O)=O [Example 221, N-(3-chloro-5-(2-(4-chlorophenyl)propan-2-yl)phenyl)-5-(N-methylmethylsulfonamido)benzo[b]thiophene-2-carboxamide]
